Assay results from patent publication US20240199564A1, “TRPM8 AGONISTS AS COOLING AGENTS AND FOR THE TREATMENT OF DISEASE” (Concentric Analgesics, Inc., priority 2021, published 2024).
Where a name gives a salt, the structure may show the parent alone. Read-outs that look alike come from different tables or passages of the source.

Key:
[1] = Solution state stability assay; type: physicochemical; details: 50° C.; for % degradation at 28 days: HPLC; for aqueous stability / hydrolysis, comparison in words: buffer, 28 days
Experimental: Compounds were incubated in the buffer media indicated (ingredients for making of PBS buffer and sodium citrate/citric acid buffer were obtained from Sigma-Aldrich, St. Louis, MO, USA). The reactions were conducted at either 50° C. and for 28 days. Samples were collected at specific time points and analyzed for % degradation of the parent compound based on UV/Vis analysis.
Methods: Samples were weighed using a Mettler Toledo XS105 analytical balance (accurate to +/−0.01 mg). Accurate dilutions were made with a P1000, P200, or P20 Gilson Pipetman, or an Eppendorf Maxipettor 1-10 mL pipettor. pH Measurements were made with a Hanna Instruments HI 4222 pH meter and a Hanna instruments HI 1330B micro pH probe. Samples were analyzed via high pressure liquid chromatography using an Agilent series 1100 HPLC instrument with a Grace Alltima column. Chromatograms were manually integrated. Individual chromatograms are assigned an automatic HPLC identification number.
Freshly prepared 1.0 mg/mL solution of each compound listed in Table # was allotted into two-dram clear glass vials. […] The vials were then stored in an oven set to 50° C. At the appropriate time points, the vials were removed from the oven, vortexed for 30 seconds and an aliquot (400 μL) was pipetted into an HPLC vial and quenched with 1% TFA in ACN (400 μL). […] For all samples, aliquots were taken after 28 days. Quenched vials were immediately analyzed via HPLC.

[2] = target: T1, human TRPM8 receptor expressed in transfected 293H cells (Homo sapiens, UniProt Q7Z2W7); experiment: TRPM8 Human Transient Potential Ion Channel Cell Based Agonist Calcium Flux Assay (FLIPR)
T1 construct: expressed in transfected cells; host or cells: 293H cells
T1 sequence (Q7Z2W7 whole entry): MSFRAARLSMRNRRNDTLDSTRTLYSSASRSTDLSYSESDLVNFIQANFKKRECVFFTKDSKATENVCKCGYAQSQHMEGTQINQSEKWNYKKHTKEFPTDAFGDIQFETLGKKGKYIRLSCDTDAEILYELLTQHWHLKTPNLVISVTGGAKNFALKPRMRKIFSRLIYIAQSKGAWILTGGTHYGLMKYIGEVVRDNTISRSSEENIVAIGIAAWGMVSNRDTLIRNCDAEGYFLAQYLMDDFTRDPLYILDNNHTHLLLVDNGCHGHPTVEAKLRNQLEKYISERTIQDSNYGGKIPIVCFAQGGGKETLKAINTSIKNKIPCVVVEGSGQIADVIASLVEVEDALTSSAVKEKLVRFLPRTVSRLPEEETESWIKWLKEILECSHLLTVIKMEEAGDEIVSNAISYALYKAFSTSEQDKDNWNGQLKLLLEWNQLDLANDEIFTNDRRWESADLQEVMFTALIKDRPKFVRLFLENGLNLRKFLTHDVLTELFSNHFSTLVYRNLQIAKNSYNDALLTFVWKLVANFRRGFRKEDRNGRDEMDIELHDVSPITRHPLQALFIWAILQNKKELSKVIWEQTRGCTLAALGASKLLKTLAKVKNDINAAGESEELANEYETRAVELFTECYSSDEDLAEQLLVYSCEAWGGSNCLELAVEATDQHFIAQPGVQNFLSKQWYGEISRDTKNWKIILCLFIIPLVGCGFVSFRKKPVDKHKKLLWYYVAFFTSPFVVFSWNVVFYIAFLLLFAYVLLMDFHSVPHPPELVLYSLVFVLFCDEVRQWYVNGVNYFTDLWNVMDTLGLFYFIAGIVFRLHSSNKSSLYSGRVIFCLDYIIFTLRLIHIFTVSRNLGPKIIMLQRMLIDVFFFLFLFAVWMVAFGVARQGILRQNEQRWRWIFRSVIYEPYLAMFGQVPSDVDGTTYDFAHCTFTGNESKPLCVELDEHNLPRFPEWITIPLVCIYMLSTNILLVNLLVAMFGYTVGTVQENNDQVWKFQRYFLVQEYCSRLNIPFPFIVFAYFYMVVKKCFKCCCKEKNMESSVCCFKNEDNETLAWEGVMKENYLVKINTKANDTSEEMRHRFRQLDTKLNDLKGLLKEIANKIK
Description: This example discloses results from TRPM8 Human Transient Potential Ion Channel Cell Based Agonist Calcium Flux Assay. Evaluation of the agonist activity of compounds at the human TRPM8 receptor expressed in transfected 293H cells, determined by measuring their effect on cytosolic Ca2+ ion mobilization using a fluorometric detection method.
Protocol: The cells are suspended in DMEM buffer (Invitrogen), then distributed in microplates at a density of 3×10^4 cells/well. The fluorescent probe (Fluo4 Direct, Invitrogen) in HBSS buffer (Invitrogen) complemented with 20 mM Hepes (Invitrogen) (pH 7.4) is then added into each well and equilibrated with the cells for 60 min at 37° C. then 15 min at 22° C. Thereafter, the assay plates are positioned in a microplate reader (CellLux, PerkinElmer) which is used for the addition of the test compound, reference agonist or HBSS buffer (basal control), and the measurements of changes in fluorescence intensity which varies proportionally to the free cytosolic Ca2+ ion concentration. For stimulated control measurements, Icilin at 3 μM is added in separate assay wells. The results are expressed as a percent of the control response to 3 μM icilin. The standard reference agonist is Icilin, which is tested in each experiment at several concentrations to generate a concentration-response curve from which its EC50 value is calculated. (Behrendt, H. J., Germann, T., Gillen, C and Hatt, H. and Jostock, R. (2004), Characterization of the mouse cold-menthol receptor TRPM8 and vanilloid receptor type-1 VR1 using a fluorometric imaging plate reader (FLIPR) assay, Br. J. Pharmacol., 141: 737.)
Data analysis: EC50 values were determined as the concentration of test substance required to produce half-maximal increases in [Ca^2+]. Maximal [Ca^2+] responses were measured as peak fluorescence intensity (FI) minus basal FI, and expressed as percentages of the maximum response to icilin. Data are given as means±s.e.m., unless otherwise stated.
The EC50 values (concentration producing a half-maximal response) and IC50 values (concentration causing a half-maximal inhibition of the control agonist response) were determined by non-linear regression analysis of the concentration-response curves generated with mean replicate values using Hill equation curve fitting:
where Y=response, A=left asymptote of the curve, D=right asymptote of the curve, C=compound concentration, and C50=EC50, and nH=slope factor.

[3] = Solubility assay in DI water; type: physicochemical; details: thermodynamic from solid, HCl salts, visual, stepwise dilution from 200 mg/mL, sonication and vortex
Experimental: In order to determine the aqueous solubility of the compounds indicated, the HCl salts of the following compounds were incubated at 200 mg/mL in DI water followed by sonication for 60 seconds and then vortex stirring for 60 seconds. If insoluble material was observed, the sample was diluted to 150, 100, 50, 25, or 20 mg/mL until no insoluble material was observed. After each dilution, each sample was sonicated for 60 seconds, vortexed for 60 seconds and let equilibrate with occasional shaking for 30 minutes.

[4] = pH = ~5.0 (0.2 M aqueous sodium citrate/citric acid buffer)
[5] = pH = ~7.4 (1X Phosphate Buffered Saline)
[6] = Ca2+ mobilization, fluorometric detection, 293H cells, response relative to 3 μM icilin, read-out: TRPM8 agonist EC50

| Compound | EC50 [2, 6] [nM] | other results |
| --- | --- | --- |
| CC(C)[C@@H]1CC[C@@H](C)C[C@H]1C(=O)N(C)c1cccc(CN)c1 [Aniline 4] |  | % degradation at 28 days [1, 4]: ~23.5%; % degradation at 28 days [1, 5]: ~31.9% |
| CC(C)[C@@H]1CC[C@@H](C)C[C@H]1OC(=O)N(C)c1cccc(CN)c1 [Aniline 2] |  | % degradation at 28 days [1, 4]: ~24.3%; % degradation at 28 days [1, 5]: ~24.4% |
| CC(C)[C@@H]1CC[C@@H](C)C[C@H]1C(=O)NCc1ccc(CN)cc1F [Compound 14, (1R,2S,5R)-N-(4-(aminomethyl)-2-fluorobenzyl)-2-isopropyl-5-methylcyclohexanecarboxamide hydrochloride] | 96 |  |
| CC(C)[C@@H]1CC[C@@H](C)C[C@H]1C(=O)NCc1ccc2c(c1)CCNC2 [Compound 11, (1R,2S,5R)-2-isopropyl-5-methyl-N-((1,2,3,4-tetrahydroisoquinolin-6-yl)methyl)cyclohexanecarboxamide hydrochloride] | 170 |  |
| CC(C)[C@@H]1CC[C@@H](C)C[C@H]1C(=O)NCc1ccc(CN2CCOCC2)cc1 [Compound 22, (1R,2S,5R)-2-isopropyl-5-methyl-N-(4-(morpholinomethyl)benzyl)cyclohexanecarboxamide hydrochloride] | 890 |  |
| CC(C)[C@@H]1CC[C@@H](C)C[C@H]1C(=O)NCc1cccc(N2CCN(C(=O)CN)CC2)c1 [Compound 6, (1R,2S,5R)-N-(3-(4-(2-aminoacetyl)piperazin-1-yl)benzyl)-2-isopropyl-5-methylcyclohexanecarboxamide dihydrochloride] | 377 |  |
| CC(C)[C@@H]1CC[C@@H](C)C[C@H]1OC(=O)Nc1cccc(CN)c1 [Aniline 1] |  | % degradation at 28 days [1, 4]: ~36.2%; % degradation at 28 days [1, 5]: ~41.2% |
| CC(C)[C@@H]1CC[C@@H](C)C[C@H]1OCC(=O)N(C)c1cccc(CN)c1 [Aniline 3] |  | aqueous stability / hydrolysis, comparison in words [1]: more stable; % degradation at 28 days [1, 4]: ~0.4%; % degradation at 28 days [1, 5]: ~8.1% |
| CC(C)[C@@H]1CC[C@@H](C)C[C@H]1C(=O)NCc1ccc(CN(C)C)cc1 [Compound 21, (1R,2S,5R)-N-(4-((dimethylamino)methyl)benzyl)-2-isopropyl-5-methylcyclohexanecarboxamide hydrochloride] | 421 |  |
| CC(C)[C@@H]1CC[C@@H](C)C[C@H]1C(=O)NCc1ccc(CNC(=O)CN)cc1 [Compound 7, (1R,2S,5R)-N-(4-((2-aminoacetamido)methyl)benzyl)-2-isopropyl-5-methylcyclohexanecarboxamide hydrochloride] | 511 |  |
| CC(C)[C@@H]1CC[C@@H](C)C[C@H]1OCC(=O)NCc1ccc(CN)cc1 [Compound 2, N-(4-(aminomethyl)benzyl)-2-(((1R,2S,5R)-2-isopropyl-5-methylcyclohexyl)oxy)acetamide hydrochloride] | 3310 |  |
| CC(C)[C@@H]1CC[C@@H](C)C[C@H]1C(=O)NCc1cc(CN)ccn1 [Compound 17, (1R,2S,5R)-N-((4-(aminomethyl)pyridin-2-yl)methyl)-2-isopropyl-5-methylcyclohexanecarboxamide hydrochloride] | 58 |  |
| CC(C)[C@@H]1CC[C@@H](C)C[C@H]1C(=O)N(C)Cc1cccc(CN(C)C)c1.Cl [Compound 3, (1R,2S,5R)-N-(3-((dimethylamino)methyl)benzyl)-2-isopropyl-N,5-dimethylcyclohexanecarboxamide hydrochloride] | 752 | aqueous stability / hydrolysis, comparison in words [1]: greatest aqueous stability; % degradation at 28 days [1, 4]: Noneª None^b; % degradation at 28 days [1, 5]: Noneª None^b |
| CC(C)[C@@H]1CC[C@@H](C)C[C@H]1C(=O)NCc1ccc(N2CCNCC2)cc1.Cl.Cl [Compound 10, (1R,2S,5R)-2-isopropyl-5-methyl-N-(4-(piperazin-1-yl)benzyl)cyclohexanecarboxamide dihydrochloride] | 110 | solubility at 30 min [3]: ≥ 200 mg/mL |
| CC(C)[C@@H]1CC[C@@H](C)C[C@H]1C(=O)NCc1ccc(COC2CCNCC2)cc1 [Compound 18, (1R,2S,5R)-2-isopropyl-5-methyl-N-(4-((piperidin-4-yloxy)methyl)benzyl)cyclohexanecarboxamide hydrochloride] | 207 |  |
| CC(C)[C@@H]1CC[C@@H](C)C[C@H]1C(=O)NCc1ccc(CN(C)Cc2ccccc2)cc1 [Compound 19, (1R,2S,5R)-N-(4-((benzyl(methyl)amino)methyl)benzyl)-2-isopropyl-5-methylcyclohexanecarboxamide hydrochloride] | 34800 |  |
| CC(C)[C@@H]1CC[C@@H](C)C[C@H]1C(=O)NCc1ccc(CN2CCNCC2)cc1.Cl.Cl [Compound 15, (1R,2S,5R)-2-isopropyl-5-methyl-N-(4-(piperazin-1-ylmethyl)benzyl)cyclohexanecarboxamide dihydrochloride] |  | EC50 [2]: 79 nM; solubility at 30 min [3]: ≥ 200 mg/mL |
| CC(N)c1ccc(CNC(=O)[C@@H]2C[C@H](C)CC[C@H]2C(C)C)cc1 (stereo partly drawn) [Compound 13, (1R,2S,5R)-N-(4-(1-aminoethyl)benzyl)-2-isopropyl-5-methylcyclohexanecarboxamide hydrochloride] | 153 |  |
| CC(C)[C@@H]1CC[C@@H](C)C[C@H]1C(=O)NCc1cccc(N2CCNCC2)c1 [Compound 5, (1R,2S,5R)-2-isopropyl-5-methyl-N-(3-(piperazin-1-yl)benzyl)cyclohexanecarboxamide dihydrochloride] | 220 |  |
| CC(C)[C@@H]1CC[C@@H](C)C[C@H]1C(=O)NCc1ccc(CCN)cc1 [Compound 12, (1R,2S,5R)-N-(4-(2-aminoethyl)benzyl)-2-isopropyl-5-methylcyclohexanecarboxamide hydrochloride] | 198 |  |
| CC(C)[C@@H]1CC[C@@H](C)C[C@H]1OCC(=O)N(C)Cc1cccc(CN(C)C)c1 [Compound 1, N-(3-((dimethylamino)methyl)benzyl)-2-(((1R,2S,5R)-2-isopropyl-5-methylcyclohexyl)oxy)-N-methylacetamide hydrochloride] | 973 |  |
| CC(C)[C@@H]1CC[C@@H](C)C[C@H]1C(=O)NCc1ccccc1N1CCN(C(=O)CN)CC1 [Compound 9, (1R,2S,5R)-N-(2-(4-(2-aminoacetyl)piperazin-1-yl)benzyl)-2-isopropyl-5-methylcyclohexanecarboxamide dihydrochloride] | > 10000 |  |
| CC(C)[C@@H]1CC[C@@H](C)C[C@H]1C(=O)NCc1ccc(C2CCNCC2)cc1.Cl [Compound 16, (1R,2S,5R)-2-isopropyl-5-methyl-N-(4-(piperidin-4-yl)benzyl)cyclohexanecarboxamide hydrochloride] | 345 | solubility at 30 min ([3]; DI water): ≥ 20 mg/mL |
| CC(C)[C@@H]1CC[C@@H](C)C[C@H]1C(=O)NCc1ccc(CN2CCCC2)cc1 [Compound 20, (1R,2S,5R)-2-isopropyl-5-methyl-N-(4-(pyrrolidin-1-ylmethyl)benzyl)cyclohexanecarboxamide hydrochloride] | 150 |  |
